Reference: patent US11098063B2, “Diazabicyclic substituted imidazopyrimidines and their use for the treatment of breathing disorders” (Bayer Aktiengesellschaft, priority 2017, dated 2021)

Legend:
human TASK-3 = human TASK-3 (Homo sapiens (Human), UniProt Q9NPC2); experiment: Inhibition of recombinant TASK-3 in stably transfected CHO cells (voltage-sensitive dye, KCl depolarization); assay type: cell-based; conditions: depolarization by 40 mM potassium chloride
Method: (§1) B-2. Inhibition of Recombinant TASK-1 and TASK-3 In Vitro
(§2) The investigations on the inhibition of the recombinant TASK-1 and TASK-3 channels were conducted using stably transfected CHO cells. The compounds according to the invention were tested in this case by application of 40 mM potassium chloride in the presence of a voltage-sensitive dye according to the method described in detail in the following references [Whiteaker et al., Validation of FLIPR membrane potential dye for high-throughput screening of potassium channel modulators, J. Biomol. Screen. 6 (5), 305-312 (2001); Molecular Devices FLIPR Application Note: Measuring membrane potential using the FLIPR® membrane potential assay kit on Fluorometric Imaging Plate Reader (FLIPR®) systems, http://www.moleculardevices.com/reagents-supplies/assay-kits/ion-channels/flipr-membrane-potential-assay-kits]. The activity of the test substances was determined as their ability to inhibit a depolarization induced in the recombinant cells by 40 mM potassium chloride. The concentration which can block half of this depolarization is referred to as IC50.

human TASK-1 = human TASK-1 (Homo sapiens (Human), UniProt O14649); experiment: Inhibition of recombinant TASK-1 in stably transfected CHO cells (voltage-sensitive dye, KCl depolarization); assay type: cell-based; conditions: depolarization by 40 mM potassium chloride
Sequence of human TASK-1 (O14649 whole entry): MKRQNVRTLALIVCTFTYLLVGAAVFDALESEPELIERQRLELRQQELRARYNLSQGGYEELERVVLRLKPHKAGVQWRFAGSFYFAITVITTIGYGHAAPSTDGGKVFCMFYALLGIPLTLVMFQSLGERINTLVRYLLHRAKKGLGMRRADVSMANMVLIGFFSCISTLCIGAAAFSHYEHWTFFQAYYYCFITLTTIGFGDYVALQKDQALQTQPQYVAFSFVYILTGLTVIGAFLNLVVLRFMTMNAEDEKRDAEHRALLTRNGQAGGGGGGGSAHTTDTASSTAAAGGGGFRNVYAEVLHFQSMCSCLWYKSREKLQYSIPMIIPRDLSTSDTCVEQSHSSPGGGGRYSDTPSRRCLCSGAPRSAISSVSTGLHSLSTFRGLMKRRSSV
Method: as §1, §2

Sequence of human TASK-3 (Q9NPC2 whole entry): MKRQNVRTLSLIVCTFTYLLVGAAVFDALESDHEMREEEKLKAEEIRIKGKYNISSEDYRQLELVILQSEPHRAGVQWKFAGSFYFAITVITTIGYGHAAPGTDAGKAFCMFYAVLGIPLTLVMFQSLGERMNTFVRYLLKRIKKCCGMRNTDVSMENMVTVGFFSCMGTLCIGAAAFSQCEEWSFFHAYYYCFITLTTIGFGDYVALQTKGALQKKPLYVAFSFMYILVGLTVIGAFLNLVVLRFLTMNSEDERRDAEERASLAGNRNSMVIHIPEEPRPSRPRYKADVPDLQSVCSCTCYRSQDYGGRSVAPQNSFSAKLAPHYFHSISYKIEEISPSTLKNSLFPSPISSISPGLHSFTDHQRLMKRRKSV

Compound | IC50 (human TASK-3) [nM] | IC50 (human TASK-1) [nM]
O=C(c1ncoc1C1CC1)N1C2CCC1CN(Cc1c(-c3ccc(C4CC4)cc3)nc3ncccn13)C2 [Example 139, (5-cyclopropyl-1,3-oxazol-4-yl)(3-{[2-(4-cyclopropylphenyl)imidazo[1,2-a]pyrimidin-3-yl]methyl}-3,8-diazabicyclo[3.2.1]octan-8-yl)methanone] | 470 | 4500
COc1ccc(Cl)c(C(=O)N2C3COCC2CN(Cc2c(-c4ccc(Cl)cc4)nc4ncccn24)C3)n1 [Example 14, (3-Chloro-6-methoxypyridin-2-yl)(7-{[2-(4-chlorophenyl)imidazo[1,2-a]pyrimidin-3-yl]methyl}-3-oxa-7,9-diazabicyclo[3.3.1]non-9-yl)methanone] | 170 | 7600
CC(C)N(C(=O)N1C2CCC1CN(Cc1c(-c3ccc(Cl)cc3)nc3ncccn13)C2)C(C)C [Example 111, 3-{[2-(4-chlorophenyl)imidazo[1,2-a]pyrimidin-3-yl]methyl}-N,N-diisopropyl-3,8-diazabicyclo[3.2.1]octane-8-carboxamide] | 290 | 6300
O=C(c1ncoc1C1CC1)N1C2CCC1CN(Cc1c(-c3ccc(Cl)cc3)nc3ncccn13)C2 [Example 53] | 19 | 620
COc1ccc(F)c(C(=O)N2CC3CCC2CN3Cc2c(-c3ccc(Br)cc3)nc3ncccn23)n1 (stereo not drawn) [Example 81] | 21 | 820
CCOc1ccc(N(C)C(=O)N2C3CCC2CN(Cc2c(-c4ccc(Cl)cc4)nc4ncccn24)C3)cc1 [Example 120, 3-{[2-(4-chlorophenyl)imidazo[1,2-a]pyrimidin-3-yl]methyl}-N-(4-ethoxyphenyl)-N-methyl-3,8-diazabicyclo[3.2.1]octane-8-carboxamide] | 230 | 15000
COc1cccc(C(=O)N2C3CCC2CN(Cc2c(-c4ccc(Cl)cc4)nc4ncccn24)C3)n1 [Example 20, (3-{[2-(4-Chlorophenyl)imidazo[1,2-a]pyrimidin-3-yl]methyl}-3,8-diazabicyclo[3.2.1]oct-8-yl)(6-methoxypyridin-2-yl)methanone] | 38 | 160
O=C(N1CCOCC1)N1C2CCC1CN(Cc1c(-c3ccc(Cl)cc3)nc3ncccn13)C2 [Example 110, (3-{[2-(4-chlorophenyl)imidazo[1,2-a]pyrimidin-3-yl]methyl}-3,8-diazabicyclo[3.2.1]oct-8-yl)(morpholin-4-yl)methanone] | 230 | 13000
COc1ccc(F)c(C(=O)N2CC3CCC2CN3Cc2c(-c3ccc(C(C)C)cc3)nc3ncccn23)n1 (stereo not drawn) [Example 72] | 29 | 2100
CC(C)(C)OC(=O)N1C2CCC1CN(Cc1c(-c3ccc(C4CC4)cc3)nc3ncccn13)C2 [Example 132, tert-Butyl 3-{[2-(4-cyclopropylphenyl)imidazo[1,2-a]pyrimidin-3-yl]methyl}-3,8-diazabicyclo[3.2.1]octane-8-carboxylate] | 410 | 1700
CCOC(=O)N1C2CCC1CN(Cc1c(-c3ccc(Cl)cc3)nc3ncccn13)C2 [Example 124, ethyl 3-{[2-(4-chlorophenyl)imidazo[1,2-a]pyrimidin-3-yl]methyl}-3,8-diazabicyclo[3.2.1]octane-8-carboxylate] | 17 | 790
COc1cccc(C(=O)N2C3CCC2CN(Cc2c(-c4ccc(Cl)cc4)nc4ncccn24)C3)c1 [Example 36] | 80 | 310
CN(C(=O)N1C2CCC1CN(Cc1c(-c3ccc(Cl)cc3)nc3ncccn13)C2)c1ccccc1 [Example 108, 3-{[2-(4-chlorophenyl)imidazo[1,2-a]pyrimidin-3-yl]methyl}-N-methyl-N-phenyl-3,8-diazabicyclo[3.2.1]octane-8-carboxamide] | 90 | 7000
COc1cccc(C(=O)N2CC3CCC2CN3Cc2c(-c3ccc(C(C)C)cc3)nc3ncccn23)n1 (stereo not drawn) [Example 73] | 81 | 9100
Cc1nc(C)c(C(=O)N2C3CCC2CN(Cc2c(-c4ccc(Cl)cc4)nc4ncccn24)C3)o1 [Example 50] | 430 | 3300
